Data reported in US12115193B2, “Methods of using RARγ agonists for cancer treatment” (Io Therapeutics, Inc., priority 2021, dated 2024).

Assays:
[1] = target: T1, RARγ (Homo sapiens, UniProt P13631); assay: RARγ transactivation assay (luciferase reporter); assay type: cell-based
T1 construct: expression plasmids encoding the full-length receptors RARα and RARγ; expressed in transfected cells
T1 sequence (P13631 1-454): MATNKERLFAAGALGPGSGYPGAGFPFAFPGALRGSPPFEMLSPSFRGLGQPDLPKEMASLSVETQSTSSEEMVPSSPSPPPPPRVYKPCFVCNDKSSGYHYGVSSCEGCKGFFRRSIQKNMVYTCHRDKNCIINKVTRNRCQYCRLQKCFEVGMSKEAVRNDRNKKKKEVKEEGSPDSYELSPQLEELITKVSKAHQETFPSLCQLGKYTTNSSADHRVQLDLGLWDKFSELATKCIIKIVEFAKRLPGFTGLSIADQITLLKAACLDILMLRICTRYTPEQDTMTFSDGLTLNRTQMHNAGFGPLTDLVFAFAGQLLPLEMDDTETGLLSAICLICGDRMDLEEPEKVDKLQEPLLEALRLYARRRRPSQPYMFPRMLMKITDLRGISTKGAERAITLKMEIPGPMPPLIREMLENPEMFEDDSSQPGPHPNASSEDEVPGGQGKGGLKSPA
Description: Transactivation assays were conducted to test the specificity of binding activity of GA1E and GA2E for RARα and RARγ. Retinoic acid receptor transactivation activity and binding efficiencies were determined essentially as described in U.S. Pat. Nos. 5,298,429 and 5,071,773, incorporated by reference herein for all they teach regarding transactivation assays. Transactivation assays employed expression plasmids encoding the full-length receptors RARα and RARγ. Reporter plasmids containing the herpes virus thymidine kinase promoter and the appropriate retinoic acid receptor response element (RAREs) were positioned upstream of an open coding region encoding firefly luciferase.
The ability of GA1E and GA2E to activate RARα and RARγ in a transactivation assay was tested over a concentration range of 0.5 to 625 nM (GA2E) or 0.05 to 3320 nM (GA1E). GA1E induced less than 10% transactivation for RARα across the whole concentration range, but over 50% transactivation for RARγ at concentrations ≥25 nM and over 70% at concentrations 125 nM (FIG. 3A). GA2E induced more than 85% transactivation at all tested concentrations and less than 10% transactivation of RARα at concentrations of ≤25 nM (FIG. 3B).

[2] = test system: EMT6 cells; assay: EMT6 in vitro culture viability, Cell Titer Glo Assay; assay type: cell-based, mouse; settings: 5 days; for IC50: Mus musculus, 120 h
Description: EMT6 cells were cultured in vitro for 5 days the presence of a multiple concentrations of the RARγ agonists GA1E, GA2E, and GA3Ep and viability assessed by the Cell Titer Glo Assay® (Promega).

[3] = test system: Lewis lung carcinoma (LLC) cells; assay: Lewis lung carcinoma in vitro culture viability, Cell Titer Glo Assay; assay type: cell-based, mouse; settings: for IC50: Mus musculus, Lewis lung carcinoma
Description: Lewis lung carcinoma (LLC) cells were cultured in vitro the presence of a multiple concentrations of the RARγ agonists GA1E, GA2E, and GA3Ep and viability assessed by the Cell Titer Glo Assay®.

[4] = test system: PBMC; assay: CMV recall antigen-stimulated PBMC: IFNγ production and CFSE proliferation; assay type: cell-based; settings: four days, vs vehicle control; for IFNγ production: 0.1 to 1000 nM; for Proliferation of CD8+ cells (CFSE dilution): increase small
Description: Peripheral blood mononuclear cells (PBMC) from a cytomegalovirus (CMV)-positive donor were labeled with carboxyfluorescein succinimidyl ester (CFSE) and stimulated with CMV recall antigens at […]. The PBMC were then treated with one of three difference RARγ selective agonists or vehicle (DMSO) control and incubated at 37° C., 5% CO2 for four days. Culture supernatant was harvested and assayed for IFNγ production and the PBMC evaluated for proliferation by flow cytometry for CFSE dilution.
CFSE is a fluorescent reactive cell membrane permeable dye. After it is taken up, CFSE covalently modifies proteins and is retained in cells for long periods of time. The CFSE-modified proteins are generally evenly divided between daughter cells at each division so that fluorescent intensity of the cells falls by have at each division. Thus diminution of the dye's fluorescent signal can be used as a measure of proliferation.

[5] = test system: EMT6 cells; assay: EMT6 syngeneic mouse model of triple negative breast cancer (Example 3); assay type: in vivo; settings: 21 daily oral doses 10 mg/kg; at the end of the study
Description: The RARγ agonists tazarotenic acid and GA2E were evaluated in the EMT6 syngeneic mouse model of breast cancer. 5×10^5 EMT6 cells were injected into the mammary fat pad of immunocompetent female Balb/c mice. When the tumors reached an average volume of 50-150 mm^3, mice were matched by tumor size into control or treatment groups (n=10-11).
The mice were treated with 21 daily oral doses 10 mg/kg of 1 mg/ml tazarotenic acid or GA2E, or vehicle control, starting on Day 0. Tumor volume was measured, and the mice weighed, on days 0, 1, 3, 6, 8, 10, 13, 15, 17, 20, and 21.

[6] = test system: TIL in EMT6 tumors; assay: Flow cytometry of excised EMT6 tumors (Example 4); assay type: in vivo, mouse
Source text: At the end of the study of Example 3, the tumors were excised, the cells disaggregated and dispersed without use of proteases, stained with various agents, and subjected to flow cytometry. FIG. 5A-B present the results of the flow cytometry both as a percentage of cells and as the number of cells per tumor. […] Of these live cells, a substantial proportion were leukocytes (FIG. 5A, “CD45” panels). […] The majority of the T cells were CD4+(FIG. 5A, “CD4” panels), expected to be predominantly helper cells. Of the CD4^+ cells, only small proportions were T memory cells (expected to be predominantly TH1 memory cells) based on intracellular staining for IFNγ (FIG. 5B, “TH IFGγ” panels), TH17 cells based in intracellular staining for IL-17 (FIG. 5B, “TH IL17” panels), or Treg cell based on staining for CD25 and FoxP3 (FIG. 5B, “Treg” panels). About 25-30% of the T cells were CD8^+ (FIG. 5B, “CD8 T” panels), expected to be predominantly cytotoxic cells.

| transactivation for RARγ ([1]; at concentrations 125 nM) | transactivation for RARγ ([1]; at concentrations ≥25 nM) | SMILES | effect on viability as concentrations exceeded 10 μM [2] | effect on viability at concentrations below 1 μM [2] | IC50 [2] | effect on viability as concentrations exceeded 10 μM [3] | effect on viability at concentrations below 1 μM [3] | IC50 [3] | IFNγ production [4] | Proliferation of CD8+ cells (CFSE dilution) [4] | tumor growth inhibition [5] | T cells (anti-CD3) as mean percentage of the leukocytes in the tumor ([6]; 10 mg/kg oral daily, end of study) | proportion of CD8+ T cells that were memory cells (intracellular IFNγ) ([6]; vs vehicle control, did not achieve statistical significance) |
| --- | --- | --- | --- | --- | --- | --- | --- | --- | --- | --- | --- | --- | --- |
| over 70% | over 50% | CCc1oc2ccc(C(/C=C/c3ccc(C(=O)O)cc3F)=N/O)cc2c1C(C)(C)C [GA1E, 4-((1E,3E)-3-(3-(tert-butyl)-2-ethyl-benzofuran-5-yl)-3-(hydroxyimino)prop-1-en-1-yl)-3-fluorobenzoic acid] | rapidly became toxic | no effect | 52 µM | rapidly became toxic | no effect | 96 µM |  |  |  |  |  |
|  |  | CC1(C)CCC(C)(C)c2cc(C(/C=C/c3ccc(C(=O)O)cc3)=N/O)ccc21 [GA3Ep] | rapidly became toxic | no effect | 101 µM | rapidly became toxic | no effect | 45 µM | increased IFNγ production substantially | increased |  |  |  |
|  |  | CC1(C)CCSc2ccc(C#Cc3ccc(C(=O)O)cn3)cc21 [tazarotenic acid, reference compound] |  |  |  |  |  |  | increased IFNγ production substantially | increased | 44% | ~10% | numerically increased |
